The values below come from PMC6044835, “Expression, Purification, and Biochemical Characterization of the Flavocytochrome P450 CYP505A30 from Myceliophthora thermophila” (ACS Omega, 2017).

By stoichiometry N is commonly meant a count of units in the complex or per binding partner. As a reminder, the Km is the concentration of substrate that gives half-maximal velocity. What is called kcat/Km is the turnover number divided by the Michaelis constant.

Data set [1] has as its target T1, CYP505A30 (Thermothelomyces thermophilus, UniProt G2QDZ3). As to the kind of experiment: UV–visible spectral binding titration with intact CYP505A30. The settings on record: for HS (%): extent of HS heme iron accumulated, intact CYP505A30, estimated to nearest 5%.
Data set [2] concerns the target T1, CYP505A30.
In data set [3] the target is T1, CYP505A30. Description: Stopped-flow kinetics of flavin reduction by NAD(P)H. The data set is classed as biochemical, Myceliophthora thermophila.
In data set [4] the target is T2, CYP505A30 heme domain (Thermothelomyces thermophilus, UniProt G2QDZ3). As to the kind of experiment: UV–visible spectral binding titration with CYP505A30 heme domain. The settings on record: for HS (%): extent of HS heme iron accumulated, heme domain, estimated to nearest 5%.
The target in data set [5] is Myceliophthora thermophila flavocytochrome P450 CYP505A30 (P450-CPR fusion enzyme), intact (Myceliophthora thermophila). Description: SEC-MALS; 5 mg protein samples in buffer A (50 mM potassium phosphate, pH 7.0) containing 200 mM KCl; integrated Superdex 200 gel filtration followed at once by a DAWN EOS MALLS detector; monomer and dimer of the intact enzyme.
Data set [6] has as its system P450 BM3. Also noted: method as in PMID 1727637. The settings on record: cited from earlier work.
Data set [7] deals with T1, CYP505A30. As to the kind of experiment: Steady-state fatty acid-dependent NADPH oxidation.
Data set [8] addresses T1, CYP505A30. The conditions noted are these: CYP505A30, GC–MS.
Data set [9] deals with P450 BM3. The settings on record: P450 BM3, similar conditions; cited from earlier work.
For data set [10], the target named is T1, CYP505A30. As to the kind of experiment: UV-visible spectral binding titration of imidazole-type inhibitors (Soret red shift by distal heme iron coordination) to intact CYP505A30 in 50 mM potassium phosphate pH 7.0 (25 °C stated for the substrate titrations), hyperbolic fit for bifonazole. Also noted: gene MYCTH_101224; intact CYP505A30, amino acids 1-1080, N-terminal hexahistidine tag (pET15b), expressed in E. coli. The conditions noted are these: read-out: KD values (azole/imidazole inhibitors). The source says: Figure 5 UV–visible spectroscopic analysis of CYP505A30 and its heme domain. […] The sodium dithionite-reduced ferrous form (dotted line) has its Soret maximum at 411 nm and a single visible region absorbance band at 546 nm. The ferrous, CO-bound form (thin solid line) has its Soret maximum at 450 nm and a visible band at 550 nm. The ferric heme NO-bound form (dashed line) has a Soret maximum at 434 nm and visible region bands at 543 and 573 nm. […] For clarity, the visible region is also shown at 5× magnification. […] The substrate-free heme domain (4.9 μM) is shown with a thick solid line. […] Each ΔAbs point is derived from the value of the difference peak absorbance maximum (at 388 nm) minus the difference trough absorbance minimum (at 417 nm). […]
The wavelengths of the absorbance minimum and maximum were identified from the difference spectra, and a maximal induced absorbance change (ΔAmax) at each point in the titration was determined by subtracting the absorbance at the wavelength minimum from that at the absorbance maximum, using the same wavelength pair throughout each titration. ΔAmax values were then plotted against ligand concentration, and data were fitted using either a hyperbolic (Michaelis–Menten) function or the Morrison function for tight-binding ligands, to determine dissociation constants (KD values), as described previously.[38],[52]

The target in data set [11] is T2, CYP505A30 heme domain.
Data set [12] has as its target T1, CYP505A30. The conditions noted are these: for kcat: reduction of the electron acceptor, 25 °C.
Substrate in data set [13]: CCCCCCCCCCCCCC(=O)O
Description: purified protein, by the assay type. The conditions noted are these: other: fatty acid-induced NADPH oxidation, 25 °C.

Substrate in data set [14]: CCCCC/C=C\C/C=C\C/C=C\C/C=C\CCCC(=O)O
Description: purified protein, by the assay type. The settings on record: other: fatty acid-induced NADPH oxidation, 25 °C.

Substrate in data set [15]: CCCCCCCCCCCC(=O)O
Description: purified protein, by the assay type. The conditions noted are these: other: fatty acid-induced NADPH oxidation, 25 °C.

Substrate in data set [16]: CCCCCCCCCCCCCCC(=O)O
Description: purified protein, by the assay type. The settings on record: other: fatty acid-induced NADPH oxidation, 25 °C.

The mark [17] stands for this setting: KD, substrate binding to intact CYP505A30, heme absorbance change, 25 °C.
Setting [18] is: fatty acid-induced NADPH oxidation, 25 °C, 200 μM NADPH.
The mark [19] stands for this setting: fatty acid-dependent NADPH oxidation.

Several values for one entry are separate records, joined by “and”; a condition that tells them apart may be missing. Identical values can stand only once. Like-named read-outs stand apart in the source and are kept apart here.

The molecule `CCCCCCCCCC(=O)O` [decanoic acid] registered a Kd in data set [1] (KD) of 21.1 ± 2 µM. Besides, the “HS (%)” value in data set [2] was 30%.
Molecule `NC(=O)C1=CN([C@@H]2O[C@H](COP(=O)(O)OP(=O)(O)OC[C@H]3O[C@@H](n4cnc5c(N)ncnc54)[C@H](O)[C@@H]3O)[C@@H](O)[C@H]2O)C=CC1` [NADH, reduced nicotinamide adenine dinucleotide] showed a klim flavin reduction in data set [3] (10 °C) of 42.0 ± 3.2 s^–1.
On to `CCCCCCCCCCCCCCCC(=O)NCC(=O)O` [N-palmitoylglycine], for which the entries for the “HS (%)” value in [4] and in data set [1] were 75% and 95%, respectively.
Regarding `NC(=O)C1=CN([C@@H]2O[C@H](COP(=O)(O)OP(=O)(O)OC[C@H]3O[C@@H](n4cnc5c(N)ncnc54)[C@H](OP(=O)(O)O)[C@@H]3O)[C@@H](O)[C@H]2O)C=CC1` [NADPH, reduced nicotinamide adenine dinucleotide phosphate], the “gradient of kobs vs temperature” value in [3] (10 to 35 °C, 1 mM NADPH) turned out to be 14.5 ± 1.5 s^–1 °C^–1. Further, the klim flavin reduction in data set [3] (10 °C) is recorded as roughly 82 s^–1; in data set [3] (25 °C), roughly 250 s^–1. Moreover, in data set [3] (10 °C, across [NADPH] range up to 1.2 mM), the kobs flavin reduction stood at 82.4 ± 9.1 s^–1. Further, in data set [3] (35 °C, 1 mM NADPH), the “kobs flavin reduction (highest rate constant)” value was determined as 441 ± 11 s^–1.
Turning to `c1ccc(-c2ccc(C(c3ccccc3)n3ccnc3)cc2)cc1` (stereo not shown) [bifonazole], the Kd in data set [1] (KD) is 69 µM and 69.1 µM.
As to `CCCCCCCCCCCCCCCCCC(=O)O` [octadecanoic acid], in [4], the Kd was determined as 5 ± 0.7 µM and the “HS (%)” value is on record as 10%. Also, in data set [1], the Kd is 11.9 ± 1 µM and the “HS (%)” value is listed as 15%.
Molecule “Myceliophthora thermophila flavocytochrome P450 CYP505A30 (P450-CPR fusion enzyme), intact” yielded a stoichiometry N in [5] of 2.
For the molecule `CCCCCCCCCCCCCC(=O)O` [tetradecanoic acid], the Kd in data set [4] was found to be 3.9 ± 0.3 µM; in [1] (setting [17]), 7.4 ± 0.2 µM. Further, the “HS (%)” value in data set [4] is 85%; in data set [1] it was 80%. In addition, the “ω-1 hydroxylated product proportion” value in data set [6] was 58%; in [8] it was 63%; in data set [8] (listed as myristic acid) it was “approximately 63%”. Moreover, the “ω-2 hydroxylated product proportion” value in data set [6] is 21%; in data set [8], roughly 28%. Besides, the “ω-3 hydroxylated product proportion” value is reported as 21% in data set [6] and 9% in data set [8]. Besides, the kcat in [7] (setting [18]) is given as 1.21 ± 0.1 s^–1; in data set [9], 30.8 ± 1.5 s^–1.
As for `CCCCCCCCCCCCCCCC(=O)O` [hexadecanoic acid], the Kd in data set [4] was 1 ± 0.4 µM; in data set [1] (setting [17]), 10.5 ± 0.2 µM. Moreover, the “HS (%)” value is on record as 55% in data set [4] and 80% in [1].
As for `c1ccc(-n2ccnc2)cc1` [1-phenylimidazole], the Kd in [1] (KD, imidazole-based inhibitors, distal coordination of heme iron, intact CYP505A30) worked out at 3.4 ± 0.2 µM.
For `CCCCCCCCCCCCCCCCC(=O)O` [heptadecanoic acid], in data set [4], the Kd worked out at 8.7 ± 0.8 µM and the “HS (%)” value is 20%. Moreover, in data set [1], the Kd came out at 4.1 ± 0.7 µM and the “HS (%)” value is on record as 10%.
In turn, `Clc1ccc(COC(Cn2ccnc2)c2ccc(Cl)cc2Cl)cc1` (stereo not shown) [econazole] came in with a Kd in data set [1] (KD) of 10 ± 0.9 µM.
`c1c[nH]cn1` [imidazole]: the Kd in data set [10] is 723 µM.
`CCCCCCCCCCCCC(=O)O` [tridecanoic acid]: the Kd in data set [4] was determined as 4.8 ± 0.3 µM; in data set [1] (setting [17]) it was 2.7 ± 0.3 µM. Moreover, the results for the “HS (%)” value in [11] and in data set [2] were 30% and 65%, respectively. The kcat in [7] (setting [18]) was determined as 5.0 ± 0.3 s^–1.
“cytochrome c: Cytochrome c (horse heart; Sigma-Aldrich), electron acceptor substrate for CPR enzymes”: the “fold slower kcat than the BM3 enzyme” value in data set [12] (BM3 under similar conditions) is “approximately 7.5 fold”. Besides, the Km in [12] (read-out: KM (electron acceptor), NADPH as electron donor) amounted to 79.3 ± 10.3 µM. The kcat in [12] (NADH as electron donor) stood at 29.5 ± 2.4 s^–1; in [12] (NADPH as electron donor) it was 29.7 ± 0.7 s^–1.
On to `CCCCCCCCCCCCCCC(=O)O` [pentadecanoic acid], for which, in data set [4], the Kd turned out to be 1.1 ± 0.3 µM and the “HS (%)” value is 90%. Besides, in data set [1], the Kd came out at 4.4 ± 0.6 µM and the “HS (%)” value is 85%. In addition, in data set [7] (setting [19]), the “KD (Michaelis–Menten fit of steady-state NADPH oxidation)” value was 7.8 µM and the kcat was roughly 450 min^–1.

B1: CYP505A30 (Thermothelomyces thermophilus ATCC 42464) (protein)
chain: MADKTTETVPIPGPPGLPLVGNALAFDSELPLRTFQEFAEEYGEIYRLTLPTGTTLVVSSQALVHELCDDKRFKKPVAAALAEVRNGVNDGLFTAREEEPNWGIAHRILMPAFGPASIQGMFTEMHEIASQLALKWARHGPDTPIFVTDDFTRLTLDTLALCTMNFRFNSYYHDELHPFINAMGNFLTESGARAMRPAITSIFHQAANRKYWEDIEVLRKTAQGVLDTRRKHPTNRKDLLSAMLDGVDAKTGQKLSDSSIIDNLITFLIAGHETTSGLLSFAFYLLIKHQDAYRKAQEEVDRVIGKGPIKVEHIKKLPYIAAVLRETLRLCPTIPIINRAAKQDEVIGGKYAVAKDQRLALLLAQSHLDPAVYGETAKQFIPERMLDENFERLNREYPDCWKPFGTGMRACIGRPFAWQEAVLVMAMLLQNFDFVLHDPYYELHYKQTLTTKPKDFYMRAILRDGLTATELEHRLAGNAASVARSGGGGGGPSKPTAQKTSPAEAKPMSIFYGSNTGTCESLAQRLATDAASHGYAAAAVEPLDTATEKLPTDRPVVIITASFEGQPPDNAAKFCGWLKNLEGDELKNVSYAVFGCGHHDWSQTFHRIPKLVHQTMKAHGASPICDEGLTDVAEGNMFTDFEQWEDDVFWPAVRARYGAAGAVAETEDAPGSDGLNIHFSSPRSSTLRQDVREATVVGEALLTAPDAPPKKHIEVQLPDGATYKVGDYLAVLPVNSKESIGRVMRKFQLSWDSHVTIASDRWTALPTGTPVPAYDVLGSYVELSQPATKRGILRLADAAEDEATKAELQKLAGDLYTSEISLKRASVLDLLDRFPSISLPFGTFLSLLPPIRPRQYSISSSPLNDPSRATLTYSLLDSPSLANPSRRFVGVATSYLSSLVRGDKLLVSVRPTHTAFRLPDEDKMGETAIICVGAGSGLAPFRGFIQERAALLAKGTQLAAALLFYGCRSPEKDDLYRDEFDKWQESGAVDVRRAFSRVDSDDTEARGCRHVQDRLWHDREEVKALWDRGARVYVCGSRQVGEGVKTAMGRIVLGEEDAEDAISKWYETVRNDRYATDVFD
As for B1, the Km in data set [13] was determined as 7.7 ± 1.9 µM; in data set [14] it was 9.2 ± 0.5 µM; in [15], 21.2 ± 2.4 µM; in data set [16], 7.8 ± 2.1 µM. The kcat in [13] turned out to be 1.2 ± 0.1 s⁻¹; in data set [14], 2 ± 0.1 s⁻¹; in [15], 4.8 ± 0.2 s⁻¹; in data set [16] it was 7.5 ± 0.7 s⁻¹. Further, the kcat/Km in data set [13] was determined as 160000 M⁻¹ s⁻¹; in data set [14], 220000 M⁻¹ s⁻¹; in data set [15], 230000 M⁻¹ s⁻¹; in data set [16] it was 960000 M⁻¹ s⁻¹.
